One may read the IC50 as the concentration at which inhibition is half-maximal.

In this assay the target is [35S]-TBPS binding, rat brain cortical membranes. Briefly: Steroid inhibition of [35S]-TBPS binding. The following applies: 3 nM [35S]-TBPS, in the presence of 5 mM GABA. The method in brief: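 Rat cortical P2 membranes incubated 90 min at room temperature with 3 nM [35S]-TBPS, […] and test compound (0.5% DMSO final) in NaCl/Na–K phosphate pH 7.4; nonspecific binding with […]. Filter-bound radioactivity counted; IC50 and Imax from nonlinear fits, mean ± SEM.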

The structures appear in SMILES notation.

For `COC[C@@]1(O)CC[C@@]2(C)[C@H](CC[C@@H]3[C@@H]2[C@H](O)C[C@]2(C)[C@@H]([C@H](C)Cn4cc(C#N)cn4)CC[C@@H]32)C1` [Example 282, 1-((S)-2-((3R,5R,8S,9S,10S,11R,13S,14S,17R)-3,11-dihydroxy-3-(methoxymethyl)-10,13-dimethylhexadecahydro-1H-cyclopenta[a]phenanthren-17-yl)propyl)-1H-pyrazole-4-carbonitrile], the IC50 fell in the range of 0.1 to 1 µM.

For `CC[C@@]1(O)CC[C@H]2[C@@H](CC[C@@H]3[C@@H]2CC[C@]2(C)[C@@H]([C@@H](C)Cn4nnnc4C)CC[C@@H]32)C1` [Example 335, (3R,5S,8R,9R,10S,13S,14S,17R)-3-ethyl-13-methyl-17-((R)-1-(5-methyl-1H-tetrazol-1-yl)propan-2-yl)hexadecahydro-1H-cyclopenta[a]phenanthren-3-ol], the IC50 was 0.1 to 1 µM.

For `COC[C@@]1(O)CC[C@@]2(C)[C@H](CC[C@@H]3[C@@H]2CC[C@@]2(C)[C@H]3CC[C@]2(O)[C@H](C)Cn2cc(C#N)cn2)C1` [Example 352, 1-((R)-2-((3R,5R,8R,9S,10S,13S,14S,17S)-3,17-dihydroxy-3-(methoxymethyl)-10,13-dimethylhexadecahydro-1H-cyclopenta[a]phenanthren-17-yl)propyl)-1H-pyrazole-4-carbonitrile], the IC50 was in the range of 1 to 10 µM. For the compound `C[C@H](Cc1ccc(C(F)(F)F)nc1)[C@H]1CC[C@H]2[C@@H]3CC[C@@H]4C[C@](C)(O)CC[C@]4(C)[C@H]3CC[C@]12C` [Example 426], the IC50 fell in the range of 0.1 to 1 µM. For `CCOC[C@@]1(O)CC[C@H]2[C@H](CC[C@@H]3[C@@H]2CC[C@]2(C)[C@@H]([C@H](CC)Nc4ccc(C#N)nc4)CC[C@@H]32)C1` [Example 493, 5-(((S)-1-((3R,5R,8R,9R,10S,13S,14S,17S)-3-(ethoxymethyl)-3-hydroxy-13-methylhexadecahydro-1H-cyclopenta[a]phenanthren-17-yl)propyl)amino)picolinonitrile], the IC50 lay within 1 to 10 µM. Regarding `CCOC[C@@]1(O)CC[C@H]2[C@H](CC[C@@H]3[C@@H]2CC[C@]2(C)[C@@H]([C@@H](C)Nc4cccc(N5CCCC5=O)c4C)CC[C@@H]32)C1` [Example 259], the IC50 was less than 0.1 µM.

With `C[C@@H]([C@H]1CC[C@H]2[C@@H]3CC[C@@H]4C[C@](C)(O)CC[C@@H]4[C@H]3CC[C@]12C)N(C)S(=O)(=O)c1ccccc1` [Example 21, N—((S)-1-((3R,5R,8R,9R,10S,13S,14S,17S)-3-hydroxy-3,13-dimethylhexadecahydro-1H-cyclopenta[a]phenanthren-17-yl)ethyl)-N-methylbenzenesulfonamide], the 50% inhibitory concentration (IC50) lay in the range of 1 to 10 µM. For `CCC[C@@]1(O)CC[C@H]2[C@H](CC[C@@H]3[C@@H]2CC[C@]2(C)[C@@H]([C@@H](C)Nc4ccc(-n5ccc(C)n5)nc4C)CC[C@@H]32)C1` [Example 91, (3R,5R,8R,9R,10S,13S,14S,17S)-13-methyl-17-((R)-1-((2-methyl-6-(3-methyl-1H-pyrazol-1-yl)pyridin-3-yl)amino)ethyl)-3-propylhexadecahydro-1H-cyclopenta[a]phenanthren-3-ol], the IC50 lay in the range of 0.1 to 1 µM.

As for `CCOC[C@@]1(O)CC[C@H]2[C@H](CC[C@@H]3[C@@H]2CC[C@]2(C)[C@@H]([C@H](C)n4cc(C#N)cn4)CC[C@@H]32)C1` [Example 163, 1-((S)-1-((3R,5R,8R,9R,10S,13S,14S,17S)-3-(ethoxymethyl)-3-hydroxy-13-methylhexadecahydro-1H-cyclopenta[a]phenanthren-17-yl)ethyl)-1H-pyrazole-4-carbonitrile], the IC50 fell in the range of 1 to 10 µM. Consider `C[C@H](Cn1cc(C#N)cn1)[C@H]1CC[C@H]2[C@@H]3CC[C@@H]4C[C@@](O)(CC5CC5)CC[C@@H]4[C@H]3CC[C@]12C` [Example 304, 1-((S)-2-((3S,5R,8R,9R,10S,13S,14S,17R)-3-(cyclopropylmethyl)-3-hydroxy-13-methylhexadecahydro-1H-cyclopenta[a]phenanthren-17-yl)propyl)-1H-pyrazole-4-carbonitrile], for which the IC50 was less than 0.1 µM. In the case of `CCOC[C@@]1(O)CC[C@H]2[C@H](CC[C@@H]3[C@@H]2CC[C@]2(C)[C@@H]([C@H](C)n4ncc(C#N)c4N)CC[C@@H]32)C1` [Example 161, 5-amino-1-((S)-1-((3R,5R,8R,9R,10S,13S,14S,17S)-3-(ethoxymethyl)-3-hydroxy-13-methylhexadecahydro-1H-cyclopenta[a]phenanthren-17-yl)ethyl)-1H-pyrazole-4-carbonitrile] it was 1 to 10 µM; in that of `COC[C@@]1(O)CC[C@H]2[C@H](CC[C@@H]3[C@@H]2CC[C@]2(C)[C@@H]([C@H](C)Cc4nc(C)ccc4Cl)CC[C@@H]32)C1` [Example 425], 1 to 10 µM; in that of `CCOC(=O)c1cnc(C[C@@H](C)[C@H]2CC[C@H]3[C@@H]4CC[C@@H]5C[C@](C)(O)CC[C@@H]5[C@H]4CC[C@]23C)o1` (stereo in doubt) [Example 456], 0.1 to 1 µM.

`C[C@H](Nc1ccccc1)[C@H]1CC[C@H]2[C@@H]3CC[C@@H]4C[C@](C)(O)CC[C@@H]4[C@H]3CC[C@]12C` [Example 26, (3R,5R,8R,9R,10S,13S,14S,17S)-3,13-dimethyl-17-((S)-1-(phenylamino)ethyl)hexadecahydro-1H-cyclopenta[a]phenanthren-3-ol]: the IC50 was 1 to 10 µM.

With `COC[C@@]1(O)CC[C@H]2[C@H](CC[C@@H]3[C@@H]2CC[C@]2(C)[C@@H]([C@@H](C)NC(=O)c4ccc(C#N)cn4)CC[C@@H]32)C1` [Example 31, 5-cyano-N—((R)-1-((3R,5R,8R,9R,10S,13S,14S,17S)-3-hydroxy-3-(methoxymethyl)-13-methylhexadecahydro-1H-cyclopenta[a]phenanthren-17-yl)ethyl)picolinamide], the IC50 fell in the range of 0.1 to 1 µM. The value for `C[C@@H](NC(=O)c1cccc(C#N)c1)[C@H]1CC[C@H]2[C@@H]3CC[C@@H]4C[C@](C)(O)CC[C@@H]4[C@H]3CC[C@]12C` [Example 109] was less than 0.1 µM. In the case of `C[C@H](Nc1cccnc1)[C@H]1CC[C@H]2[C@@H]3CC[C@@H]4C[C@](C)(O)CC[C@@H]4[C@H]3CC[C@]12C` [Example 204] it was 0.1 to 1 µM. As to `CC[C@]12CC[C@H]3[C@@H](CC[C@@H]4C[C@](C)(O)CC[C@@H]43)[C@@H]1CC[C@@H]2[C@@H](C)Cn1cc(C#N)cn1` [Example 317, 1-((R)-2-((3R,5R,8R,9R,10S,13S,14S,17R)-13-ethyl-3-hydroxy-3-methylhexadecahydro-1H-cyclopenta[a]phenanthren-17-yl)propyl)-1H-pyrazole-4-carbonitrile], the IC50 was less than 0.1 µM.

As to `COC[C@@]1(O)CC[C@H]2[C@H](CC[C@@H]3[C@@H]2CC[C@]2(C)[C@@H](CCn4ccnn4)CC[C@@H]32)C1` [Example 50, (3R,5R,8R,9R,10S,13R,14S,17R)-17-(2-(1H-1,2,3-triazol-1-yl)ethyl)-3-(methoxymethyl)-13-methylhexadecahydro-1H-cyclopenta[a]phenanthren-3-ol], the IC50 was less than 0.1 µM.

For the origin of these results see patent publication US20230322846A9, “NEUROACTIVE STEROIDS AND THEIR METHODS OF USE” (SAGE THERAPEUTICS, INC., priority 2018, published 2023).
